The values below come from ChEMBL document CHEMBL5725285, “Pyrrole six-membered heteroaryl ring derivative, preparation method thereof, and medicinal uses thereof” (2016).

For assay [1], the target named is T1, Tyrosine-protein kinase JAK3 (Homo sapiens, UniProt P52333).
T1 sequence (P52333 whole entry): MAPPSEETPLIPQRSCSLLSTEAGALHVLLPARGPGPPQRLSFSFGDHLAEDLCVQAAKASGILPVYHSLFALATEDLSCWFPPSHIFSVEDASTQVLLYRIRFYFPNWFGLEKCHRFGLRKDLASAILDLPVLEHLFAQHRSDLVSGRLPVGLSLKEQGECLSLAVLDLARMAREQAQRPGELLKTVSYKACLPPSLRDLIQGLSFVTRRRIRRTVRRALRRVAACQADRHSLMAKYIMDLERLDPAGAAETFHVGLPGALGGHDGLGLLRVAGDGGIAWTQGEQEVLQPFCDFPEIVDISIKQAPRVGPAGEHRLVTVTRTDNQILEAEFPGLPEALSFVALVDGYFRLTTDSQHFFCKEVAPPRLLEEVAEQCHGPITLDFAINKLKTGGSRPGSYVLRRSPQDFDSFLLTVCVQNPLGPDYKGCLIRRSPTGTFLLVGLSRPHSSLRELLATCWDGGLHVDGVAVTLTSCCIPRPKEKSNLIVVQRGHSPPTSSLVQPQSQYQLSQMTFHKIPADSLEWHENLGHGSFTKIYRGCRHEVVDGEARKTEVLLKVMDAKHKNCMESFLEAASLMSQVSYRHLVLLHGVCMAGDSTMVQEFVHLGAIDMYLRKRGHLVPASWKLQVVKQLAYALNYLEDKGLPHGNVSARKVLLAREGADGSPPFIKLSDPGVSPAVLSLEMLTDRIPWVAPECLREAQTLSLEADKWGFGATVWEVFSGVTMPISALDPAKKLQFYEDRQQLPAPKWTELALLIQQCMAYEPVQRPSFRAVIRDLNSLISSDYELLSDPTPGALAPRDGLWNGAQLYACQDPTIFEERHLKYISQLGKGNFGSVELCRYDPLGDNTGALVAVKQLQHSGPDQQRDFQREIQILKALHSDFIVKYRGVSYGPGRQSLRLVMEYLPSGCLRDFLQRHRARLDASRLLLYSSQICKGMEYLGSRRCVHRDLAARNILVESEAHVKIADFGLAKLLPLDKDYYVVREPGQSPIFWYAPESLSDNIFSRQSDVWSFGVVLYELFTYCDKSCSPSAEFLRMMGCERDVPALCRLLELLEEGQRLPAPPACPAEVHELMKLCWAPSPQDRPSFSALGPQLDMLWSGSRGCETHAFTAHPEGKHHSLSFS
The assay can be described thus: In Vitro Kinase Assay: In vitro kinase assays described below can be used to determine the activity of a test compound for inhibiting the activity of JAK3 kinase. The test compounds were dissolved in dimethyl sulfoxide and diluted with water to a serial concentration gradient as required by the experiment. JAK3 substrates (Cell Signaling Technology, Catalog Number: 1305s) and ATP (2 mM) solution ….

The target in assay [2] is T2, Tyrosine-protein kinase JAK1 (Homo sapiens, UniProt P23458). The assay can be described thus: JAK1 Kinase Assay: TBDIn vitro kinase assays described below can be used to determine the activity of a test compound for inhibiting the activity of JAK1 kinase. The test compounds were dissolved in dimethyl sulfoxide and diluted with water to a serial concentration gradient as required in the experiment. JAK1 substrates (Cell Signaling Technology, Catalog Number: 1305s) and ATP (2 mM) solution ….
T2 sequence (P23458 whole entry): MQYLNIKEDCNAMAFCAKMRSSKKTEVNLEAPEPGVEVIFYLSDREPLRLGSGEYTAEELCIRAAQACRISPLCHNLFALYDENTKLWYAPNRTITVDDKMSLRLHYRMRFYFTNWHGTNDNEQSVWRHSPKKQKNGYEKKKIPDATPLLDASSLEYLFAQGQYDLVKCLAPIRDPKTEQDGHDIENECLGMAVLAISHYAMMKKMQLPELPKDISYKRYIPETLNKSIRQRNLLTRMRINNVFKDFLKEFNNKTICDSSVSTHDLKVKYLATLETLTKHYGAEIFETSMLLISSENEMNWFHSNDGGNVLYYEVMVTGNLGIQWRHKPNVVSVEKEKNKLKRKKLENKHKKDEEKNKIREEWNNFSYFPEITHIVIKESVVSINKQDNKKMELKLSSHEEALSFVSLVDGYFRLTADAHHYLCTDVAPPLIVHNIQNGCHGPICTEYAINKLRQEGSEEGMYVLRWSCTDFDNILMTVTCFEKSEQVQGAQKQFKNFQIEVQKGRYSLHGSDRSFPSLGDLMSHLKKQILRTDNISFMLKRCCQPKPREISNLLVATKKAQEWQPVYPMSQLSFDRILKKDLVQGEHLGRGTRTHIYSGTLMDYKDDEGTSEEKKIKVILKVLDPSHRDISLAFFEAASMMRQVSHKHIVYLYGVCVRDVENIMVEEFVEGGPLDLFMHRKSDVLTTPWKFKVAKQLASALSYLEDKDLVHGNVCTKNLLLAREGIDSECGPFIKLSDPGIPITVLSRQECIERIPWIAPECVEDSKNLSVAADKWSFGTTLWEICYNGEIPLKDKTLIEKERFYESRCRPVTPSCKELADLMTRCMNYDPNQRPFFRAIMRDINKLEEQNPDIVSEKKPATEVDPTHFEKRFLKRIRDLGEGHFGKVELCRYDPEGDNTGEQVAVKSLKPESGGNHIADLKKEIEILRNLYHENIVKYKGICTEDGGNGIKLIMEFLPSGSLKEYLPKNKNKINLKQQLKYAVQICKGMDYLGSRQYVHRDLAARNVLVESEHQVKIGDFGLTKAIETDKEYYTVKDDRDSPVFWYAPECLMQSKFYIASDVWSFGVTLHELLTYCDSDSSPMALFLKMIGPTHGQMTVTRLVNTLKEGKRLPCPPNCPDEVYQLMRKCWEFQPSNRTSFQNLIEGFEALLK

Assay [3] has as its target T2, Tyrosine-protein kinase JAK1. The assay can be described thus: IC50 values of test compounds was calculated from the data of the test compounds in inhibiting the activity of JAK1 kinase at different concentrations.

Regarding `CN(c1ncnc2[nH]ccc12)[C@@H]1C[C@@H]2CCN(C(=O)Nc3nncs3)C[C@@H]2C1`, the IC50 in assay [1] stood at 148 nM; in assay [2], 40 nM.
With `CN(c1ncnc2[nH]ccc12)[C@H]1C[C@@H]2CN(C(=O)[C@H](O)C(F)(F)F)C[C@@H]2C1`, in assay [3], the IC50 is 45 nM.
